Assay results taken from the supplement of paper PMC10307832.

Assays:
Assay in all cases: relative viability (nuclei count vs DMSO), 5 days (fraction); higher = more cells survive
[1] = tested on: PC-3 [JPC-3]
Method in brief: (§1)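 Values are medians from duplicate plates. Each reflects relative viability, defined as the nuclei count of treated wells over that of vehicle wells. Lung cancer cell lines in 1536-well plates were pin-tool dosed one day after seeding with one drug alone or with a fixed anchor-drug dose plus five library-drug doses (not always all listed) in √10 steps, then fixed, stained and imaged at 4× after 5 days.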

[2] = tested on: CAL-12T
Method in brief: as §1

[3] = tested on: NCI-H1915
Method in brief: as §1

[4] = tested on: BEN
Method in brief: as §1

[5] = tested on: NCI-H1651
Method in brief: as §1

[6] = tested on: NCI-H441
Method in brief: as §1

[7] = tested on: NCI-H1944
Method in brief: as §1

[8] = tested on: NCI-H460
Method in brief: as §1

[9] = tested on: 201T
Method in brief: as §1

[10] = tested on: NCI-H727
Method in brief: as §1

[11] = tested on: NCI-H2087
Method in brief: as §1

[12] = tested on: LCLC-97TM1
Method in brief: as §1

[13] = tested on: NCI-H2023
Method in brief: as §1

[14] = tested on: A-427
Method in brief: as §1

[15] = tested on: LC-2-ad
Method in brief: as §1

[16] = tested on: NCI-H1792
Method in brief: as §1

[17] = tested on: NCI-H520
Method in brief: as §1

[18] = tested on: NCI-H596
Method in brief: as §1

[19] = tested on: H3255
Method in brief: as §1

[20] = tested on: NCI-H1650
Method in brief: as §1

[21] = tested on: HCC-15
Method in brief: as §1

Question: Which relative viability ([1]; first compound 0.04 µM) does the source give for `C[C@@H]1CN(CC(=O)Nc2ccc3c(c2)Cc2cccc(-c4cc(=O)cc(N5CCOCC5)o4)c2S3)C[C@H](C)O1` + CC1(C)CCC(c2ccc(Cl)cc2)=C(CN2CCN(c3ccc(C(=O)NS(=O)(=O)c4ccc(N[C@H](CCN5CCOCC5)CSc5ccccc5)c(S(=O)(=O)C(F)(F)F)c4)cc3)CC2)C1 [Navitoclax] (partner 0.5 µM) here?
Answer: 0.875

Question: What about the relative viability ([1]; first compound 0.1265 µM) of the same compound?
Answer: 0.795

Question: And the relative viability ([1]; first compound 0.4 µM)?
Answer: 0.836

Question: What about the relative viability ([1]; first compound 4 µM) of the same compound?
Answer: 0.835

Question: What about the relative viability ([2]; first compound 0.04 µM) of the same compound?
Answer: 1.42

Question: What about the relative viability ([2]; first compound 0.1265 µM) of the same compound?
Answer: 1.11

Question: What about the relative viability ([2]; first compound 0.4 µM) of the same compound?
Answer: 1.07

Question: And the relative viability ([2]; first compound 4 µM)?
Answer: 0.652

Question: What about the relative viability ([3]; first compound 0.04 µM) of the same compound?
Answer: 0.792

Question: And the relative viability ([3]; first compound 0.1265 µM)?
Answer: 0.789

Question: And the relative viability ([3]; first compound 0.4 µM)?
Answer: 0.796

Question: And the relative viability ([3]; first compound 4 µM)?
Answer: 0.753

Question: And the relative viability ([4]; first compound 0.04 µM)?
Answer: 0.0641

Question: And the relative viability ([4]; first compound 0.1265 µM)?
Answer: 0.0514

Question: And the relative viability ([4]; first compound 0.4 µM)?
Answer: 0.0961

Question: And the relative viability ([4]; first compound 4 µM)?
Answer: 0.0488

Question: What about the relative viability ([5]; first compound 0.04 µM) of the same compound?
Answer: 1.05

Question: And the relative viability ([5]; first compound 0.1265 µM)?
Answer: 0.987

Question: What about the relative viability ([5]; first compound 0.4 µM) of the same compound?
Answer: 0.836

Question: And the relative viability ([5]; first compound 4 µM)?
Answer: 1.03

Question: And the relative viability ([6]; first compound 0.04 µM)?
Answer: 0.427

Question: What about the relative viability ([6]; first compound 0.4 µM) of the same compound?
Answer: 0.576

Question: And the relative viability ([6]; first compound 4 µM)?
Answer: 0.318

Question: What about the relative viability ([7]; first compound 0.1265 µM) of the same compound?
Answer: 1.02

Question: And the relative viability ([7]; first compound 0.4 µM)?
Answer: 1.11

Question: And the relative viability ([7]; first compound 4 µM)?
Answer: 1.06

Question: And the relative viability ([8]; first compound 0.04 µM)?
Answer: 1.07

Question: What about the relative viability ([8]; first compound 0.1265 µM) of the same compound?
Answer: 1.17

Question: And the relative viability ([8]; first compound 0.4 µM)?
Answer: 1.22

Question: And the relative viability ([8]; first compound 4 µM)?
Answer: 0.955

Question: What about the relative viability ([9]; first compound 0.04 µM) of the same compound?
Answer: 1.21

Question: What about the relative viability ([9]; first compound 0.1265 µM) of the same compound?
Answer: 1.2

Question: What about the relative viability ([9]; first compound 0.4 µM) of the same compound?
Answer: 1.19

Question: What about the relative viability ([9]; first compound 4 µM) of the same compound?
Answer: 1.14

Question: And the relative viability ([10]; first compound 0.04 µM)?
Answer: 0.482

Question: And the relative viability ([10]; first compound 0.1265 µM)?
Answer: 0.494

Question: What about the relative viability ([10]; first compound 0.4 µM) of the same compound?
Answer: 0.412

Question: What about the relative viability ([10]; first compound 4 µM) of the same compound?
Answer: 0.381

Question: What about the relative viability ([11]; first compound 0.04 µM) of the same compound?
Answer: 0.971

Question: What about the relative viability ([11]; first compound 0.1265 µM) of the same compound?
Answer: 1.1

Question: And the relative viability ([11]; first compound 0.4 µM)?
Answer: 0.909

Question: And the relative viability ([11]; first compound 4 µM)?
Answer: 0.923

Question: And the relative viability ([12]; first compound 0.1265 µM)?
Answer: 0.645

Question: And the relative viability ([12]; first compound 0.4 µM)?
Answer: 0.279

Question: And the relative viability ([12]; first compound 4 µM)?
Answer: 0.318

Question: And the relative viability ([13]; first compound 0.04 µM)?
Answer: 0.993

Question: What about the relative viability ([13]; first compound 0.1265 µM) of the same compound?
Answer: 0.921

Question: And the relative viability ([13]; first compound 0.4 µM)?
Answer: 0.923

Question: And the relative viability ([13]; first compound 4 µM)?
Answer: 0.796

Question: What about the relative viability ([14]; first compound 0.04 µM) of the same compound?
Answer: 0.988

Question: And the relative viability ([14]; first compound 0.1265 µM)?
Answer: 0.982

Question: And the relative viability ([14]; first compound 0.4 µM)?
Answer: 0.983

Question: And the relative viability ([14]; first compound 4 µM)?
Answer: 0.967

Question: And the relative viability ([15]; first compound 0.04 µM)?
Answer: 0.587

Question: What about the relative viability ([15]; first compound 0.1265 µM) of the same compound?
Answer: 0.46

Question: And the relative viability ([15]; first compound 0.4 µM)?
Answer: 0.336

Question: And the relative viability ([15]; first compound 4 µM)?
Answer: 0.29

Question: What about the relative viability ([16]; first compound 0.04 µM) of the same compound?
Answer: 0.593

Question: What about the relative viability ([16]; first compound 0.1265 µM) of the same compound?
Answer: 0.597

Question: And the relative viability ([16]; first compound 0.4 µM)?
Answer: 0.632

Question: What about the relative viability ([16]; first compound 4 µM) of the same compound?
Answer: 0.597

Question: And the relative viability ([17]; first compound 0.04 µM)?
Answer: 1.2

Question: And the relative viability ([17]; first compound 0.1265 µM)?
Answer: 1.03

Question: And the relative viability ([17]; first compound 0.4 µM)?
Answer: 0.888

Question: And the relative viability ([17]; first compound 4 µM)?
Answer: 1.08

Question: What about the relative viability ([18]; first compound 0.04 µM) of the same compound?
Answer: 0.958

Question: And the relative viability ([18]; first compound 0.1265 µM)?
Answer: 0.994

Question: What about the relative viability ([18]; first compound 0.4 µM) of the same compound?
Answer: 0.934

Question: And the relative viability ([18]; first compound 4 µM)?
Answer: 0.992

Question: And the relative viability ([19]; first compound 0.04 µM)?
Answer: 0.475

Question: And the relative viability ([19]; first compound 0.1265 µM)?
Answer: 0.411

Question: And the relative viability ([19]; first compound 0.4 µM)?
Answer: 0.463

Question: What about the relative viability ([19]; first compound 4 µM) of the same compound?
Answer: 0.518

Question: What about the relative viability ([20]; first compound 0.04 µM) of the same compound?
Answer: 1.25

Question: And the relative viability ([20]; first compound 0.1265 µM)?
Answer: 1.09

Question: What about the relative viability ([20]; first compound 0.4 µM) of the same compound?
Answer: 1.38

Question: What about the relative viability ([20]; first compound 4 µM) of the same compound?
Answer: 0.969

Question: And the relative viability ([21]; first compound 0.04 µM)?
Answer: 0.7

Question: And the relative viability ([21]; first compound 0.1265 µM)?
Answer: 0.639

Question: And the relative viability ([21]; first compound 0.4 µM)?
Answer: 0.682

Question: And the relative viability ([21]; first compound 4 µM)?
Answer: 0.556
